Read-outs that look alike come from different tables or passages of the source.
Legend:
Male Wistar rats = experiment: Forced Swim Test (FST); assay type: in vivo; conditions: rat; immobility and swimming; FIG. 1
Protocol: Male Wistar rats (Charles River, Hollister, Calif.), weighing 175-225 g (Charles River, Portage, Ind.) used for the forced swim test study were housed in pairs with food and water available ad libitum, except during testing, in a temperature and humidity controlled vivarium (21° C.). Rats were maintained on a 12-hour reverse light-dark cycle with lights on at 6 pm. All experimental procedures occurred during the dark cycle, were approved by the Institutional Animal Care and Use Committee of the Scripps Research Institute, and were in accordance with the Association for the Assessment and Accreditation of Laboratory Animal Care (AAALAC) guidelines. […]
After the habituation swim and 24 hours prior to the test swim, rats were administered one of three doses of a mGlu2/3 NAM, with doses and pretreatment time based on maximal brain penetration as determined by PK studies for each compound. Blood and brain tissue were collected immediately after the FST and the PK properties of each compound were analyzed together with FST behavior. […] Twenty-four hours after their first exposure, the animals were again placed in the swim apparatus for 5 min, and behaviors were monitored from above by video camera for subsequent analysis. The rater of the behavioral patterns was blind with respect to the experimental conditions being scored. […]

[1] = PK: brain and plasma levels collected after the FST; assay type: in vivo, rat; conditions: Wistar
Protocol: After the habituation swim and 24 hours prior to the test swim, rats were administered one of three doses of a mGlu2/3 NAM, with doses and pretreatment time based on maximal brain penetration as determined by PK studies for each compound. Blood and brain tissue were collected immediately after the FST and the PK properties of each compound were analyzed together with FST behavior. The modified forced swim test was carried out as described previously in Cryan et al., 2003. Briefly, rats were taken from the vivarium and immediately placed individually for 15 min in Pyrex cylinders (21×46 cm; Fisher Scientific, Tustin, Calif.), which were filled with water to a depth of 30 cm. The testing room was bright, and two bright (60-watt) lamps provided extra illumination above the cylinders. The rats were removed 15 min later, dried, and placed in their home cage. Twenty-four hours after their first exposure, the animals were again placed in the swim apparatus for 5 min, and behaviors were monitored from above by video camera for subsequent analysis. The rater of the behavioral patterns was blind with respect to the experimental conditions being scored. A time sampling technique was employed whereby the predominant behavior in each 5-sec period of the 300-sec test was recorded. Climbing behavior consisted of upward-directed movements of the forepaws along the side of the swim chamber. Swimming behavior was defined as movement (usually horizontal) throughout the swim chamber, which also included crossing into another quadrant. Immobility was assigned when no additional activity was observed other than that required to keep the rat's head above water.

rat mGlu3 receptor = rat mGlu3 receptor (Rattus norvegicus (Rat), UniProt P31422); experiment: mGlu3 in vitro GIRK thallium flux assay; assay type: cell-based; conditions: NAM; 2.5 min compound incubation; EC80 glutamate; HEK-293 GIRK cells
Chain of rat mGlu3 receptor (P31422 23-879): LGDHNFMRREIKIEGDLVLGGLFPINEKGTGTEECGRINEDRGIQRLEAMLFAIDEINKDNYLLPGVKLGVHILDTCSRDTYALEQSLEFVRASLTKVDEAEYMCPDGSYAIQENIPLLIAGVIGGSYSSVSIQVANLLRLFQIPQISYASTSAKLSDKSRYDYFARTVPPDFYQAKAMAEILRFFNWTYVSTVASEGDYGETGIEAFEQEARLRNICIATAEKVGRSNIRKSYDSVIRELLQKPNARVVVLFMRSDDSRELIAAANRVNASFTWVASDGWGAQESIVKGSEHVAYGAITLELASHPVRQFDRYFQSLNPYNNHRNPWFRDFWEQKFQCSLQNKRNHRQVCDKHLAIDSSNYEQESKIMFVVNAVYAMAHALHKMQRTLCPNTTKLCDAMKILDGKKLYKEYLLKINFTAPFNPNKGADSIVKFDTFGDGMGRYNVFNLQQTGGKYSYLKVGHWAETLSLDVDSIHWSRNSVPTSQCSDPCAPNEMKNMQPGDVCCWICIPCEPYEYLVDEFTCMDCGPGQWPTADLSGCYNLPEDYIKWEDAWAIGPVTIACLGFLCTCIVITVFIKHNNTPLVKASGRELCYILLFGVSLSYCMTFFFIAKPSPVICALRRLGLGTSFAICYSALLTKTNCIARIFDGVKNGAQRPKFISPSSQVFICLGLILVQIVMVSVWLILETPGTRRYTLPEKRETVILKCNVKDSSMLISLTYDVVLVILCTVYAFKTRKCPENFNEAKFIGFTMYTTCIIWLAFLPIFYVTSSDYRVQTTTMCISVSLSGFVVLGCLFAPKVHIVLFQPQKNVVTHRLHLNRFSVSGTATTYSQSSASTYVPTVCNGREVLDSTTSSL
Outline: (§1)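 Cells expressing rat mGlu2 or mGlu3 with GIRK, plated overnight at 37 °C. Test compounds (0.3% DMSO, 10-point 1:3 series) preincubated 2.5 or 60 min, then thallium buffer plus EC80 glutamate added. Fluorescence slope 5–15 s after addition, normalised to vehicle and maximal agonist, fitted by four-parameter logistic.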

rat mGlu2 receptor = rat mGlu2 receptor (Rattus norvegicus (Rat), UniProt P31421); experiment: mGlu2 in vitro GIRK thallium flux assay; assay type: cell-based; conditions: NAM, EC80 glutamate, HEK-293 GIRK cells
Chain of rat mGlu2 receptor (P31421 19-872): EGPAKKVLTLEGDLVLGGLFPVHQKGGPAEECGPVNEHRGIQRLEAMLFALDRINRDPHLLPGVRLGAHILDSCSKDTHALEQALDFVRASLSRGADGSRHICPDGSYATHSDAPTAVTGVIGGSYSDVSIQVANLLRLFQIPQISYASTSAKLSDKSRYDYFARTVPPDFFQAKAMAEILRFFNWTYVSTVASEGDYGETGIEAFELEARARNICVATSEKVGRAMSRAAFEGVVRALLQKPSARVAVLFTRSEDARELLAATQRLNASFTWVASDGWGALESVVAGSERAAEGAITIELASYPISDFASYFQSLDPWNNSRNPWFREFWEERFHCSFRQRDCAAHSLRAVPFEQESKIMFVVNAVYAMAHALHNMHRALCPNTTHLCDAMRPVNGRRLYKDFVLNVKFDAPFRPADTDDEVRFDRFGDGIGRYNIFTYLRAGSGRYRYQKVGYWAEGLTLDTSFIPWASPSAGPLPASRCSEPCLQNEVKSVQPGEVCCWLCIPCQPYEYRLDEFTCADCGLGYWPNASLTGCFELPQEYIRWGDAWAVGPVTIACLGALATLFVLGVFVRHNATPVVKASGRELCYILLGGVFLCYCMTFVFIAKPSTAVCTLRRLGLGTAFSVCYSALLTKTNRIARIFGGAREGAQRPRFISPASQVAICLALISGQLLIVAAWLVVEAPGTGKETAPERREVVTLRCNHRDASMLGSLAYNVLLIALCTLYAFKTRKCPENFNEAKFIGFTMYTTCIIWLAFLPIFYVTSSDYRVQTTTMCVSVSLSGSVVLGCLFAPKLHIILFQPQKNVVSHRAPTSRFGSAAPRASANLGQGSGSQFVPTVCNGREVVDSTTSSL
Outline: as §1

[2] = Plasma stability in vitro assay; assay type: in vitro ADME; conditions: rat plasma, 100 μM, 37.5° C.
Protocol: A 20 μL aliquot of a 10 mM solution in DMSO of the test compound was added to 2.0 mL of heparinized rat plasma (Lampire, P1-150N) to obtain a 100 μM final solution. The mixture was incubated for 1 h at 37.5° C. Aliquots of 100 μL were taken at 15 min intervals and diluted with 100 μL of MeOH/ACN. After mixing, the sample was centrifuged at approximately 13000 rpm for 12 min. The supernatant was filtered and transferred into an autosampler vial and the amount of test compound was quantified using the Shimadzu LCMS-2010EV system. The change of the AUC of the parent compound in function of time was used as a measure of plasma stability.

[3] = Microsomal stability in vitro assay; assay type: in vitro ADME; conditions: rat liver microsomes 1 mg/mL, 4 μM compound, 2 mM NADPH
Protocol: Pooled rat liver microsomes (BD Biosciences, #452701) were preincubated with test compounds at 37.5° C. for 5 min in the absence of NADPH. The reaction was initiated by addition of NADPH and incubated under the same conditions. The final incubation concentrations were 4 μM test compound, 2 mM NADPH, and 1 mg/mL (total protein) liver microsomes in phosphate-buffered saline (PBS) at pH 7.4. One aliquot (100 μL) of the incubation mixture was withdrawn at 15 min time points and combined immediately with 100 μL of ACN/MeOH. After mixing, the sample was centrifuged at approximately 13000 rpm for 12 min. The supernatant was filtered and transferred into an autosampler vial and the amount of test compound was quantified using a Shimadzu LCMS 2010EV mass spectrometer. The change of the AUC (area under the curve) of the parent compound as a function of time was used as a measure of microsomal stability. Test compounds were run in duplicate with a positive control.

[4] = tested on: cultured spinal cord astrocytes; conditions: astrocytes from wild-type and mGlu2 knockout mice, not mGlu3 knockout mice; cited from earlier work
SOD1G93A mice = conditions: continuous treatment with 1 or 5 mg/kg/day; cited from earlier work
R6/2 mice = conditions: 20 mg/kg daily subcutaneous injection beginning at 4 weeks; cited from earlier work
SMI-32+ motor neurons = conditions: abrogated by anti-GDNF antibodies; cited from earlier work
reserpine-treated rat = conditions: cited from earlier work
[5] = rat brain tissue, read-out: Brain
[6] = 2.5 min compound incubation, read-out: mGlu2 EC50 (μM) (2.5 min)
[7] = read-out: mGlu2 EC50 (μM) (60 min), 60 min compound incubation

Row | Plasma Stability, Percent Remaining @ 1 hour [2] [%] | Microsomal Stability, Percent Remaining @ 1 hour [3] [%] | EC50 (rat mGlu2 receptor; mGlu2 EC50 (μM) (60 min), 60 min compound incubation) [µM] | Compound | antidepressant activity in the Forced Swim Test (Male Wistar rats) | concentration at 24 h [1, 5] [nM] | concentration at 24 h ([1]; rat plasma, read-out: Plasma) [nM] | EC50 (rat mGlu3 receptor) [µM] | EC50 (rat mGlu2 receptor; [6]) [µM] | EC50 (rat mGlu2 receptor; [7]) [µM] | GDNF levels [4] | neurological disability (SOD1G93A mice) | phenotype in R6/2 mice (R6/2 mice) | protection of motor neurons against excitotoxic death (SMI-32+ motor neurons) | locomotor activity (reserpine-treated rat; intracerebroventricular 1, 5, 10, 20 nmol/2 μl, reserpine 5 mg/kg ip) | reversal of reserpine-induced akinesia (reserpine-treated rat; systemic 0.1, 1, 10 mg/kg ip)
1 |  |  |  | N#Cc1cc(C2=Nc3ccc(Br)cc3NC(=O)C2)ccn1 [Example 182, 4-(8-Bromo-2-oxo-2,3-dihydro-1H-benzo[b][1,4]diazepin-4-yl)picolinonitrile] | decreasing immobility and increasing swimming | 280 ± 100 | 160 ± 30 | 0.04 | 0.04 | 0.04 |  |  |  |  |  | 
2 | 95 | 66 | 0.11 | O=C(O)c1cc(F)cc(-c2cccc(-c3nsc(-c4ccoc4)n3)c2)c1 [Example 43, 5-Fluoro-3′-(5-(furan-3-yl)-1,2,4-thiadiazol-3-yl)biphenyl-3-carboxylic Acid] |  | 210 ± 40 | 4690 ± 780 | 3.43 | 0.17 |  |  |  |  |  |  | 
3 |  |  |  | N[C@@]1(C(=O)O)CO[C@H]2[C@H](C(=O)O)[C@H]21 [LY379268] |  |  |  |  |  |  | enhanced GDNF levels | beneficial effect on neurological disability | dramatically improves the phenotype | protected | dose-dependent increase in locomotor activity | did not reverse reserpine-induced akinesia
4 |  |  |  | O=C1CC(c2ccnc(Br)c2)=Nc2ccc(C(F)(F)F)cc2N1 [Example 191, 4-(2-Bromopyridin-4-yl)-8-(trifluoromethyl)-1,3-dihydro-2H-benzo[b][1,4]diazepin-2-one] | decreasing immobility and increasing swimming | 1430 ± 460 | 280 ± 60 | 0.18 | 0.25 | 0.08 |  |  |  |  |  | 

From patent US9969726B2, “Metabotropic glutamate receptor negative allosteric modulators (NAMS) and uses thereof” (Sanford-Burnham Medical Research Institute, priority 2014, dated 2018)
